One series concerns the target T1, AC8 (Homo sapiens, UniProt P40145).
T1 construct: expressed in transfected cells
In words: cAMP accumulation assay, AC8-HEK Δ3/6 KO cells. Format: cell-based. The conditions noted are these: CDI analog SAR set, 3 μM A23187; read-out: IC50 (μM) ± SEM AC8. The procedure: (§1) Cryopreserved HEK293 cells with AC3 and AC6 knocked out, and stably expressing AC1, AC2, AC5, or AC8 (AC1-HEK Δ3/6 KO, AC2-HEK Δ3/6 KO, AC5-HEK Δ3/6 KO, or AC8-HEK Δ3/6 KO cells, respectively; [Soto-Velasquez et al., 2018]) were plated at 5,000 cells/well. Cells were then incubated for 1 h at 37°C and 5% CO2. Cells were then treated with varying concentrations of inhibitors for 30 min, followed by treatment with calcium ionophore A23187 (3 μM) in 500 μM 3-isobutyl-1-methylxanthine (IBMX), a phosphodiesterase inhibitor, for 1 h at RT (Sigma Aldrich, St. Louis, MO). Finally, Cisbio HTRF detection reagents were added and incubated for 1–24 h at RT. Plates were read according to manufacturer’s protocol on an HTRF-compatible plate reader at 620 and 665 nm cAMP concentrations were interpolated from a cAMP standard curve. […] For cytotoxicity assays, compounds were tested at 30 μM and this protocol was used with the exception of detection reagents; CellTiter-Glo 2.0 reagent was used according to manufacturer’s protocol and luminescence was read on the Synergy Neo2 plate reader. Data are normalized to cells treated with vehicle (100%) or 2% tween (0%) and are represented as the percent of vehicle, from the average of three independent experiments (N = 3).

The next series has as its target T2, AC8-C2b/CaM (Homo sapiens, UniProt P0DP23).
T2 construct: made in house; host or cells: E. coli BL21-CodonPlus (DE3)-RIPL
As to the kind of experiment: AC8-C2b/CaM FP counterscreen assay.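 For all read-outs here: fluorescence polarization of AC peptide binding to GST-CaM in HEPES buffer with KCl and 50 µM CaCl2, compound preincubated 30 min with GST-CaM, DMSO and calmidazolium as controls.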 Format: binding. Conditions: for Ki (μM) AC8 C2b: Cheng-Prusoff from FP IC50 and Kd, n/i given where none; for Ki ratio (AC8-C2b/AC1): ratio >1: more potent in AC1/CaM FP.

The next series deals with T3, AC2 (Homo sapiens, UniProt Q08462).
T3 construct: expressed in transfected cells
In words: cAMP accumulation assay, AC2-HEK Δ3/6 KO cells. Format: cell-based. Conditions: for inhibition at 30 µM: read-out: % Inhibited at AC2 ± SEM. The procedure: as §1

The subject of the next series is HEK293T cells. As to the kind of experiment: CellTiter-Glo 2.0 cell viability assay.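 Note: luminescence read-out after 30 min compound exposure at 37 °C in HEPES-buffered HBSS, scaled to vehicle-treated cells as 100% and cell-free buffer wells as 0%.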 Format: cell-based.
The nature of series [1]: CellTiter-Glo 2.0 cell viability assay.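 Note: luminescence read-out after 30 min compound exposure at 37 °C in HEPES-buffered HBSS, scaled to vehicle-treated cells as 100% and cell-free buffer wells as 0%.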 Format: cell-based. Conditions: human, HEK293T cells, pH 7.4; at the compound's AC1/CaM NanoBiT IC50 concentration; read-out: % Viable Cells at AC1 IC50.
Series [2] in a line: Cytotoxicity assay (CellTiter-Glo 2.0) in AC1-HEK Δ3/6 KO cells. Format: cell-based. Conditions: human, percent of vehicle, read-out: % Viable Cells at AC1 30 μM. As for the experimental part: as §1
In a further series the target is T4, CaM (Homo sapiens, UniProt P0DP23).
T4 construct: 6X-His-GST (N, cleaved yes); made in house; host or cells: E. coli BL21-CodonPlus (DE3)-RIPL in M9 minimal media with 15NH4Cl
In words: 1H-15N HSQC NMR of 15N-CaM with compound. Format: binding. Conditions: 5 equivalent molar excess over 100 μM CaM. As for the experimental part:
All NMR samples contained 100 μM ^15N-CaM in 20 mM HEPES pH 7.4, 100 mM KCl, 10 mM CaCl2, 10% D2O, and 5% DMSO. Initial spectra were collected for CaM alone before individual compounds were titrated to observe chemical shift perturbations. All spectra were acquired at 298 K using a 600 MHz Bruker Avance NEO NMR spectrometer with a triple resonance gradient cryoprobe. NMR spectra were processed using NMRPipe and analyzed using NMRFAM-SPARKY.

For another series, the target named is T5, AC5 (Homo sapiens, UniProt O95622).
T5 construct: expressed in transfected cells
In words: cAMP accumulation assay, AC5-HEK Δ3/6 KO cells. Format: cell-based. Conditions: for inhibition at 30 µM: read-out: % Inhibited at AC5 ± SEM. As for the experimental part:
as §1

Another series has as its target T6, AC1-C1b/CaM (Homo sapiens, UniProt P0DP23).
T6 construct: made in house; host or cells: E. coli BL21-CodonPlus (DE3)-RIPL
As to the kind of experiment: AC1-C1b/CaM fluorescence polarization (FP) assay. Conditions: for IC50: 100 nM AC1-C1b, 100 nM GST-CaM, 95% CI in brackets; for Ki: Cheng-Prusoff from FP IC50 and Kd; for AC1-CaM FP % inhib: relative to 100 μM CDZ (100% inhibition), highest concentration tested. Format: binding.

A further series concerns the target T7, AC8-Nt/CaM (Homo sapiens, UniProt P0DP23).
T7 construct: made in house; host or cells: E. coli BL21-CodonPlus (DE3)-RIPL
In words: AC8-Nt/CaM FP counterscreen assay.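 For all read-outs here: fluorescence polarization of AC peptide binding GST-CaM in HEPES buffer with CaCl2, compound preincubated with CaM 30 min, peptide read after 2 h at room temperature in dark.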 Format: binding. Conditions: for Ki (μM) AC8 NT: Cheng-Prusoff from FP IC50 and Kd, n/i given where none; for Ki ratio (AC8 NT/AC1): ratio >1: more potent in AC1/CaM FP.

Another series has as its target T8, AC1/CaM PPI (Homo sapiens, UniProt P0DP23).
T8 construct: human AC1 (hAC1) residues 1–1,118 were cloned; The hCaM residues 1–149, residues 1–1,248 of rat AC8 (rAC8); expressed in transfected cells; host or cells: HEK293T, transient transfection
As to the kind of experiment: AC1/CaM NanoBiT assay in HEK293T cells. Format: cell-based. The conditions noted are these: for IC50: HEK293T, thapsigargin-stimulated, AUC, read-out: Nanobit: AC1-CaM IC50 (μM ± SEM).

For a further series, the target named is T9, AC8/CaM PPI (Homo sapiens, UniProt P0DP23).
T9 construct: confirmed as an AC1/AC8 non-selective hit against full-length AC1- and AC8-CaM in the NanoBiT assay; The hCaM residues 1–149, residues 1–1,248 of rat AC8 (rAC8); expressed in transfected cells; host or cells: HEK293T, transient transfection
As to the kind of experiment: AC8/CaM NanoBiT assay in HEK293T cells. Format: cell-based, rat. Conditions: for IC50: HEK293T, thapsigargin-stimulated, AUC, read-out: Nanobit: AC8-CaM IC50 (μM ± SEM).

For the next series, the target named is T10, AC1 (Homo sapiens, UniProt Q08828).
T10 construct: expressed in transfected cells
As to the kind of experiment: cAMP accumulation assay, AC1-HEK Δ3/6 KO cells. Format: cell-based. Conditions: for inhibition of AC1 activity: CDI analog set, maximal inhibition of A23187 response; for inhibition of AC1 activity (efficacy): initial characterization of hits, data not shown. The procedure:
as §1, with “Cells” for “Cryopreserved HEK293 cells with AC3 and AC6 knocked out, and stably expressing AC1, AC2, AC5, or AC8 (AC1-HEK Δ3/6 KO, AC2-HEK Δ3/6 KO, AC5-HEK Δ3/6 KO, or AC8-HEK Δ3/6 KO cells, respectively; [Soto-Velasquez et al., 2018]) were plated at 5,000 cells/well. Cells”

The mark [3] stands for this setting: CDI analog SAR set, 3 μM A23187, read-out: IC50 (μM) ± SEM AC1.
Setting [4] is: initial examination, 10,000 cells per well, 3 μM A23187, 1 h RT, read-out: AC1 IC50 ± SEM.

Read-outs that look alike come from different tables or passages of the source. Where only a bound is given, the exact number is not on record here.

T5 sequence (O95622 whole entry, species assumed): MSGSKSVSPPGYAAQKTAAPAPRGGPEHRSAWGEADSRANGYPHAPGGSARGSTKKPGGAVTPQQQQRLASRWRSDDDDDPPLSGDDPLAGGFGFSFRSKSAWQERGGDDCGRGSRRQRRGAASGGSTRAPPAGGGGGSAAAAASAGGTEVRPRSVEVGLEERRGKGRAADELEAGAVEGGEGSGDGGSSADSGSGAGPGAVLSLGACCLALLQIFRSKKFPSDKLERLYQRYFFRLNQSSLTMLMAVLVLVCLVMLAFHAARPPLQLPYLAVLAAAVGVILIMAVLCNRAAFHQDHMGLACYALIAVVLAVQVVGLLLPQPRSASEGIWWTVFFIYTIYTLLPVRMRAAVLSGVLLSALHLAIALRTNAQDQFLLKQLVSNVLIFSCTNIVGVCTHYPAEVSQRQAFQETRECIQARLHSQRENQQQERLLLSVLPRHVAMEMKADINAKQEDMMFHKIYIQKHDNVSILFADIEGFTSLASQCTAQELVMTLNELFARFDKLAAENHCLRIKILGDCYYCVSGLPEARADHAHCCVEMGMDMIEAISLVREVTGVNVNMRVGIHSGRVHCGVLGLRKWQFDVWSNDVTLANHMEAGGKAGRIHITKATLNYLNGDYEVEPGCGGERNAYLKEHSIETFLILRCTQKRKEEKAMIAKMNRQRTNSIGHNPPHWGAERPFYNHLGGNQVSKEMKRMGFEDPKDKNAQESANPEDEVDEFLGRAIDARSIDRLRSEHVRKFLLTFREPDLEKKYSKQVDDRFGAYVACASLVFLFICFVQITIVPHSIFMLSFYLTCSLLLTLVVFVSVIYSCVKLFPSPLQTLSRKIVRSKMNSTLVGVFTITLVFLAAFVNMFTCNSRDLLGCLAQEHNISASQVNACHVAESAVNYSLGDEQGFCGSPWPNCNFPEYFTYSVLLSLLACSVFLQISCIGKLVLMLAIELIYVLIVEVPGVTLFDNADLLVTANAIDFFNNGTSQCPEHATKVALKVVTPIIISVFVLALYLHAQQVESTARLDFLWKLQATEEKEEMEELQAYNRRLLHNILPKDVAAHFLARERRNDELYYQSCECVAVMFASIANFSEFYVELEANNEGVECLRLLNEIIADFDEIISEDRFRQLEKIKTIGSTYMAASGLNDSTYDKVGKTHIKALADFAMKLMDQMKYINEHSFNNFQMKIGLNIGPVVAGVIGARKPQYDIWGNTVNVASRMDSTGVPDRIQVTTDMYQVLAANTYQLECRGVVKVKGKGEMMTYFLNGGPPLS
T3 sequence (Q08462 whole entry): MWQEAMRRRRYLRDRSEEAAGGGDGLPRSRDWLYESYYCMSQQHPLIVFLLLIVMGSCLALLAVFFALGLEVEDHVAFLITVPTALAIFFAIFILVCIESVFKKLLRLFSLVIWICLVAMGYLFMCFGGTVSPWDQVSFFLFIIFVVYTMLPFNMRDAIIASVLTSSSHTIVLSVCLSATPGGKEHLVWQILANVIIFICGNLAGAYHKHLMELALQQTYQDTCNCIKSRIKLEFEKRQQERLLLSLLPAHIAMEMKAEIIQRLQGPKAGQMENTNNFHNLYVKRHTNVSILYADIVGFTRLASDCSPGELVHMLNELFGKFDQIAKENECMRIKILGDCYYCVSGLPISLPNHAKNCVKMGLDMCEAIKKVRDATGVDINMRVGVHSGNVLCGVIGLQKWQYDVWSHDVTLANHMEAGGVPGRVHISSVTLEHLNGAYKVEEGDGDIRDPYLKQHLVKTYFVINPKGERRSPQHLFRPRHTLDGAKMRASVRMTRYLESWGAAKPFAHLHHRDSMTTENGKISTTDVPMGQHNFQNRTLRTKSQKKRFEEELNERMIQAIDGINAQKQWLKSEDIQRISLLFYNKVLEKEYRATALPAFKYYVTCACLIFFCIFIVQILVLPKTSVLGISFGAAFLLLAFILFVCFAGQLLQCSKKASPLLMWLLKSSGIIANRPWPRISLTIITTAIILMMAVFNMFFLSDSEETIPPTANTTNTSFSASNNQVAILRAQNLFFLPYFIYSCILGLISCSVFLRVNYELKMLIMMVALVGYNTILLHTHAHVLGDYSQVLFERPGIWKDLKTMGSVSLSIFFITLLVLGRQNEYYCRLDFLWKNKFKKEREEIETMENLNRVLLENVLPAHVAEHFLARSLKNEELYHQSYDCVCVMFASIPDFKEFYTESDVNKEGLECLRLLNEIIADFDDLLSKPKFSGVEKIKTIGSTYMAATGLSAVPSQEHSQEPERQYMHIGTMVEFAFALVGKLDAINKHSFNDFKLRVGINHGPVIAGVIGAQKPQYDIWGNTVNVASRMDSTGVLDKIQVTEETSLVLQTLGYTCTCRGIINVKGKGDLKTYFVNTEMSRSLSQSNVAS
T10 sequence (Q08828 whole entry): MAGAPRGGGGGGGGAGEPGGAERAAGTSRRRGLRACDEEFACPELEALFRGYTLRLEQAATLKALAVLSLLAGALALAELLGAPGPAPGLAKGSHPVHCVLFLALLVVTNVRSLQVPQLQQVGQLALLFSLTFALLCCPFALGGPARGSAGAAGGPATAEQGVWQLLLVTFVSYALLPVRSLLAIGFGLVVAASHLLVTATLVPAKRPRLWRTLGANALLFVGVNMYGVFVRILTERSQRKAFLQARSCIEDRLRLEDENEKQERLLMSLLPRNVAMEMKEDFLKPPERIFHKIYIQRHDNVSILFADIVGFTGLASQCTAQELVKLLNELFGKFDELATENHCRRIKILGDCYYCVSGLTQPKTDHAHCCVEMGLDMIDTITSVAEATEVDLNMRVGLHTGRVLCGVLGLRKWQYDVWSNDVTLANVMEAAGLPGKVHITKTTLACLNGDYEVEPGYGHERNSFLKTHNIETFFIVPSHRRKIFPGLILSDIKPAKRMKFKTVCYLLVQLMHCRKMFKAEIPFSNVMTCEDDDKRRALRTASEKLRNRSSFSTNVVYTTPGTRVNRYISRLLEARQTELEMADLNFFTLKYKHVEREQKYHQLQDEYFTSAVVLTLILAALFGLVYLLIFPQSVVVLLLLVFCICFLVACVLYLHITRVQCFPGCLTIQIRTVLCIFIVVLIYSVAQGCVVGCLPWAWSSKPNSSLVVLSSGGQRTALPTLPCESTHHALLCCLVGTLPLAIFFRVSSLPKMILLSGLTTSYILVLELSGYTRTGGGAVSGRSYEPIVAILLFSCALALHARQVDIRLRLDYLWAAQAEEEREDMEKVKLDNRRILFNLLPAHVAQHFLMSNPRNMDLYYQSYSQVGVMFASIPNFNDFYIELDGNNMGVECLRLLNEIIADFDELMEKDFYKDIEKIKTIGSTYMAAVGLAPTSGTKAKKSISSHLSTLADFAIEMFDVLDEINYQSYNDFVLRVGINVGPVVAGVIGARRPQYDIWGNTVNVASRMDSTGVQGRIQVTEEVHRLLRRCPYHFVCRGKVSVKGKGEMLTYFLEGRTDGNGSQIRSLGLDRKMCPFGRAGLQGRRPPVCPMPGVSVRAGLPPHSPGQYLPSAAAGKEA
T1 sequence (P40145 whole entry, species assumed): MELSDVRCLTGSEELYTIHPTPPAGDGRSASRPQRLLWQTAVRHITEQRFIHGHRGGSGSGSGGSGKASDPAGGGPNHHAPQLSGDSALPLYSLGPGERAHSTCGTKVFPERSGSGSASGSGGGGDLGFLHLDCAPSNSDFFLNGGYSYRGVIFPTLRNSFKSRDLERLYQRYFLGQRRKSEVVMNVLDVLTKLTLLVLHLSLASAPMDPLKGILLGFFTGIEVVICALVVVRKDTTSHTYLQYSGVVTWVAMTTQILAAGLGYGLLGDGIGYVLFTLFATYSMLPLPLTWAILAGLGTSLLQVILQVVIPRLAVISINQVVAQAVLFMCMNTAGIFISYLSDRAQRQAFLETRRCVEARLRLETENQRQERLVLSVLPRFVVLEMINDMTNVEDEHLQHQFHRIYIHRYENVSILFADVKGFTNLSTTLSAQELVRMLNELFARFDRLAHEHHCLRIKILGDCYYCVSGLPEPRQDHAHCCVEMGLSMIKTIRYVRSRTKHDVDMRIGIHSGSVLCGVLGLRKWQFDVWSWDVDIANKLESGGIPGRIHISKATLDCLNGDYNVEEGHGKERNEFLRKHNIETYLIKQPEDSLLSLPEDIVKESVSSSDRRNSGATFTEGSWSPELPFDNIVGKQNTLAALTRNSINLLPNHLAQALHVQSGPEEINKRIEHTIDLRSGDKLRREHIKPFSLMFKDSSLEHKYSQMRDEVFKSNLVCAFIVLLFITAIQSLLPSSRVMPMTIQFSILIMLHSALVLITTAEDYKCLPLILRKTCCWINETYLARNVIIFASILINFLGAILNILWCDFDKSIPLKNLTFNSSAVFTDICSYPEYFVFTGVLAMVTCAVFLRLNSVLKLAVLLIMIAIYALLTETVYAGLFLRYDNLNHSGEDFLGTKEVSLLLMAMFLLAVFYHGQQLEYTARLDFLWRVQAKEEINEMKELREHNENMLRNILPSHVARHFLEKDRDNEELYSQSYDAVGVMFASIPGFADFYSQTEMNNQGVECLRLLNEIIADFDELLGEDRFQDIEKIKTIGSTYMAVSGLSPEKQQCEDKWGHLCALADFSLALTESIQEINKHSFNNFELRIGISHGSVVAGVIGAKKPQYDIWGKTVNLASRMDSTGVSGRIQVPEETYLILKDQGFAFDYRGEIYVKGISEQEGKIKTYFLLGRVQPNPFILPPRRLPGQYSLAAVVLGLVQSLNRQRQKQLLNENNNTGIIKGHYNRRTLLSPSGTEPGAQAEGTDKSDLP

Consider `CCc1cc(C(c2cccs2)N2CCN(C)CC2)c(NC(=O)c2ccco2)s1` (centres unmarked) [Compound 15], for which the IC50 at AC8 was 3.9 ± 1.83 µM; at AC1-C1b/CaM, 22.1 µM; at AC1/CaM PPI it was 26.1 ± 1.17 µM; at AC8/CaM PPI, 33.3 ± 1.18 µM; at AC1 (setting [3]) it was 4.36 ± 0.32 µM; at AC1 (setting [4]), 4.88 ± 2.14 µM. Also, the “Ki (μM) AC8 C2b” value on AC8-C2b/CaM is recorded as “n/i”. Besides, the “Ki ratio (AC8-C2b/AC1)” value on AC8-C2b/CaM is reported as “AC1 Selective”. The inhibition at 30 µM on AC2 amounted to 59 ± 14%; on AC5 it was 47 ± 10%. For the same compound, in the series on HEK293T cells, the “cell viability at ∼300 μM” value is listed as “decrease in cell viability”. Also, in [1], the viability at 30 min was 100%. Moreover, the viability at 30 min, 30 μM in series [2] was 43%. On CaM, the “chemical shift perturbations (CSP) of 15N-CaM” value (“chemical shift perturbations” below) is “several peaks were broadened by intermediate exchange and disappeared”. At AC1-C1b/CaM, this compound came in with a Ki of 5.2 µM. The “AC1-CaM FP % inhib” value at AC1-C1b/CaM is given as 58%. Besides, the “Ki (μM) AC8 NT” value on AC8-Nt/CaM was “n/i”. The “Ki ratio (AC8 NT/AC1)” value at AC8-Nt/CaM is recorded as “AC1 Selective”. The “inhibition of AC1-CaM interaction in NanoBiT” value on AC1/CaM PPI (full-length proteins) is recorded as 100%. The “inhibition of AC8-CaM interaction in NanoBiT” value against AC8/CaM PPI (full-length proteins) was 100%. At AC1, the “inhibition of AC1 activity” value is 100%. Moreover, the “inhibition of AC1 activity (efficacy)” value at AC1 is reported as about 75%.

As to `CC(=O)Oc1c(Sc2ccc(Cl)cc2)c(C)nn1C(C)(C)C` [Compound 13], at AC8-C2b/CaM, the “Ki (μM) AC8 C2b” value is “n/i” and the “Ki ratio (AC8-C2b/AC1)” value was “AC1 Selective”. Further, in the series on HEK293T cells (316 μM), the “cell viability reduced at highest concentration tested” value is about 50%. The “cell viability at ∼300 μM” value in the series with HEK293T cells is recorded as “decrease in cell viability”. Besides, the viability at 30 min in series [1] was 96%. For the same compound, the “chemical shift perturbations” value on CaM is reported as “largest CSPs”. On AC1-C1b/CaM, this compound yielded an IC50 of 73.5 µM and a Ki of 17.4 µM. On AC8-Nt/CaM, the “Ki (μM) AC8 NT” value was “n/i” and the “Ki ratio (AC8 NT/AC1)” value is reported as “AC1 Selective”. Also, the IC50 on AC1/CaM PPI amounted to 16.1 ± 1.13 µM. On AC8/CaM PPI, the IC50 came to 13.1 ± 1.19 µM. In addition, the IC50 on AC1 (setting [4]) came out at 31 ± 6.63 µM.

Take `CCc1cc(C(c2cccs2)N2CCC(C)CC2)c(NC(=O)c2ccco2)s1` (centres unmarked) [Compound 24]: the IC50 at AC8 turned out to be 2.7 ± 0.24 µM; at AC1 (setting [3]) it was 2.75 ± 0.82 µM. In addition, the “% Inhibited at AC2 ± SEM” value at AC2 (30 μM) came out at 15 ± 11%. Also, the inhibition at 30 µM at AC2 and at AC5 was under 16% in each case. Moreover, the viability at 30 min, 30 μM in [2] is 77%. At AC5 (30 μM), the “% Inhibited at AC5 ± SEM” value is 16 ± 11%. Further, the “inhibition of AC1 activity” value on AC1 stood at 100%.

For the compound `Cn1cc(C(=O)Nc2ccc(Cl)cc2Cl)c2[nH]c(=O)n(-c3ccc(Cl)cc3)c(=O)c21` [Compound 21], on AC8-C2b/CaM, the “Ki (μM) AC8 C2b” value is on record as “n/i” and the “Ki ratio (AC8-C2b/AC1)” value is “AC1 Selective”. The viability at 30 min in series [1] was 100%. Besides, at CaM, the “chemical shift perturbations” value is “modest chemical shift changes”. Further, on AC1-C1b/CaM, it took 9.9 µM to reach half-maximal inhibition (IC50) and the “AC1-CaM FP % inhib” value was determined as 59%. On AC8-Nt/CaM, the “Ki (μM) AC8 NT” value was “n/i” and the “Ki ratio (AC8 NT/AC1)” value was “AC1 Selective”. For the same compound, on AC1/CaM PPI, the IC50 is 25.6 ± 1.42 µM. The “fold selective for AC8 over AC1 in the NanoBiT assay” value at AC8/CaM PPI (AC8/CaM vs AC1/CaM NanoBiT) is listed as 2- to 4 fold. Moreover, the IC50 on AC8/CaM PPI stood at 6.8 ± 1.19 µM. Further, the “inhibition of AC1 activity (efficacy)” value on AC1 is recorded as about 50%. The IC50 at AC1 (setting [4]) was 8.77 ± 4.47 µM.

Regarding `Cc1cc(C(c2cccs2)N2CCN(C)CC2)c(NC(=O)c2ccco2)s1` (centres unmarked) [Compound 25], the IC50 on AC8 worked out at 8.85 ± 2.7 µM; on AC1 (setting [3]), 6.39 ± 0.89 µM. Besides, the inhibition at 30 µM at AC2 worked out at 52 ± 11%; at AC5, 46 ± 5%. In addition, the viability at 30 min, 30 μM in series [2] is 94%. Moreover, the “inhibition of AC1 activity” value at AC1 stood at 100%.

(Values after PMC9486168, “Protein-protein interaction-based high throughput screening for adenylyl cyclase 1 inhibitors: Design, implementation, and discovery of a novel chemotype” (Frontiers in Pharmacology, 2022).)
